Laboratory results published in PubChem BioAssay AID2060908 (Molecular Pharmacology Branch, DTP, NCI, 2025).

Test system: 186277-243-T-J2-PDC complex spheroids, viability
Assay: Anticancer human tumor 186277-243-T-J2-PDC patient-derived colon adenocarcinoma cell line growth inhibition [RAS]
Conditions: for IC50: curve of first compound; for viability, T/C: stronger effect = lower value
In short: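 Agents were tested in combination matrices in half-log decrements from a top concentration at or near clinical Cmax (10 microM if undetermined). Targets were multi-cell spheroids of tumour lines plus HUVEC and MSC stromal cells.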

[1] = second compound 0.00316 µM, first compound 0.0316 µM
[2] = second compound 0.00316 µM, first compound 0.1 µM
[3] = second compound 0.01 µM, first compound 0.0316 µM
[4] = second compound 0.01 µM, first compound 0.1 µM
[5] = second compound 0.0316 µM, first compound 0.0316 µM
[6] = second compound 0.0316 µM, first compound 0.1 µM
[7] = second compound 0.1 µM, first compound 0.0316 µM
[8] = second compound 0.1 µM, first compound 0.1 µM
[9] = second compound 0.316 µM, first compound 0.0316 µM
[10] = second compound 0.316 µM, first compound 0.1 µM
[11] = second compound 1 µM, first compound 0.0316 µM
[12] = second compound 1 µM, first compound 0.1 µM
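Note: spheroids exposed to compounds for 7 days before viability read.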

Cc1nc(N2CCC3(CC2)COC(C)C3N)c(CO)nc1Sc1ccnc(N)c1Cl (stereo unspecified) + C=CC(=O)N1CCN(c2nc(OCC3CCCN3C)nc3c(F)c(-c4nc(N)cc(C)c4C(F)(F)F)c(Cl)cc23)C(C)C1
IC50 (second compound 0.00316 µM): > 10 µM
IC50 (second compound 0.01 µM): > 10 µM
IC50 (second compound 0.0316 µM): > 10 µM
IC50 (second compound 0.1 µM): > 10 µM
IC50 (second compound 0.316 µM): > 10 µM
IC50 (second compound 1 µM): > 10 µM
viability, T/C [1]: 102%
viability, T/C [2]: 102%
viability, T/C (second compound 0.00316 µM, first compound 0.316 µM): 127%
viability, T/C (second compound 0.00316 µM, first compound 1 µM): 108%
viability, T/C (second compound 0.00316 µM, first compound 3.16 µM): 116%
viability, T/C (second compound 0.00316 µM, first compound 10 µM): 78.9%
viability, T/C [3]: 99.8%
viability, T/C [4]: 101%
viability, T/C (second compound 0.01 µM, first compound 0.316 µM): 94.4%
viability, T/C (second compound 0.01 µM, first compound 1 µM): 85.2%
viability, T/C (second compound 0.01 µM, first compound 3.16 µM): 89.2%
viability, T/C (second compound 0.01 µM, first compound 10 µM): 78.7%
viability, T/C [5]: 86.8%
viability, T/C [6]: 103%
viability, T/C (second compound 0.0316 µM, first compound 0.316 µM): 113%
viability, T/C (second compound 0.0316 µM, first compound 1 µM): 117%
viability, T/C (second compound 0.0316 µM, first compound 3.16 µM): 83.2%
viability, T/C (second compound 0.0316 µM, first compound 10 µM): 80.4%
viability, T/C [7]: 94%
viability, T/C [8]: 86.6%
viability, T/C (second compound 0.1 µM, first compound 0.316 µM): 91.6%
viability, T/C (second compound 0.1 µM, first compound 1 µM): 104%
viability, T/C (second compound 0.1 µM, first compound 3.16 µM): 87.7%
viability, T/C (second compound 0.1 µM, first compound 10 µM): 87.9%
viability, T/C [9]: 90.6%
viability, T/C [10]: 93.3%
viability, T/C (second compound 0.316 µM, first compound 0.316 µM): 104%
viability, T/C (second compound 0.316 µM, first compound 1 µM): 115%
viability, T/C (second compound 0.316 µM, first compound 3.16 µM): 95.7%
viability, T/C (second compound 0.316 µM, first compound 10 µM): 75.8%
viability, T/C [11]: 103%
viability, T/C [12]: 100%
viability, T/C (second compound 1 µM, first compound 0.316 µM): 91.8%
viability, T/C (second compound 1 µM, first compound 1 µM): 99.1%
viability, T/C (second compound 1 µM, first compound 3.16 µM): 92.6%
viability, T/C (second compound 1 µM, first compound 10 µM): 83.8%

Cc1nc(N2CCC3(CC2)COC(C)C3N)c(CO)nc1Sc1ccnc(N)c1Cl (stereo unspecified) + CCn1c(-c2cc(N3CCN(C)CC3)cnc2C(C)OC)c2c3cc(ccc31)-c1csc(n1)CC(NC(=O)C1CC1C)C(=O)N1CCCC(N1)C(=O)OCC(C)(C)C2
IC50 (second compound 0.000949 µM): 0.616 µM
IC50 (second compound 0.003 µM): 0.128 µM
IC50 (second compound 0.00949 µM): < 0.0316 µM
IC50 (second compound 0.03 µM): < 0.0316 µM
IC50 (second compound 0.0949 µM): < 0.0316 µM
IC50 (second compound 0.3 µM): < 0.0316 µM
viability, T/C (second compound 0.000949 µM, first compound 0.0316 µM): 94.6%
viability, T/C (second compound 0.000949 µM, first compound 0.1 µM): 110%
viability, T/C (second compound 0.000949 µM, first compound 0.316 µM): 76.3%
viability, T/C (second compound 0.000949 µM, first compound 1 µM): 30.1%
viability, T/C (second compound 0.000949 µM, first compound 3.16 µM): 9.66%
viability, T/C (second compound 0.000949 µM, first compound 10 µM): 5.87%
viability, T/C (second compound 0.003 µM, first compound 0.0316 µM): 91.2%
viability, T/C (second compound 0.003 µM, first compound 0.1 µM): 58.7%
viability, T/C (second compound 0.003 µM, first compound 0.316 µM): 18.3%
viability, T/C (second compound 0.003 µM, first compound 1 µM): 8.06%
viability, T/C (second compound 0.003 µM, first compound 3.16 µM): 4.43%
viability, T/C (second compound 0.003 µM, first compound 10 µM): 2.87%
viability, T/C (second compound 0.00949 µM, first compound 0.0316 µM): 27.1%
viability, T/C (second compound 0.00949 µM, first compound 0.1 µM): 13.6%
viability, T/C (second compound 0.00949 µM, first compound 0.316 µM): 6.12%
viability, T/C (second compound 0.00949 µM, first compound 1 µM): 4.02%
viability, T/C (second compound 0.00949 µM, first compound 3.16 µM): 3.42%
viability, T/C (second compound 0.00949 µM, first compound 10 µM): 2.67%
viability, T/C (second compound 0.03 µM, first compound 0.0316 µM): 9.41%
viability, T/C (second compound 0.03 µM, first compound 0.1 µM): 7.94%
viability, T/C (second compound 0.03 µM, first compound 0.316 µM): 4.32%
viability, T/C (second compound 0.03 µM, first compound 1 µM): 3.62%
viability, T/C (second compound 0.03 µM, first compound 3.16 µM): 2.89%
viability, T/C (second compound 0.03 µM, first compound 10 µM): 2.28%
viability, T/C (second compound 0.0949 µM, first compound 0.0316 µM): 5.71%
viability, T/C (second compound 0.0949 µM, first compound 0.1 µM): 4.9%
viability, T/C (second compound 0.0949 µM, first compound 0.316 µM): 3.65%
viability, T/C (second compound 0.0949 µM, first compound 1 µM): 3.26%
viability, T/C (second compound 0.0949 µM, first compound 3.16 µM): 2.76%
viability, T/C (second compound 0.0949 µM, first compound 10 µM): 1.95%
viability, T/C (second compound 0.3 µM, first compound 0.0316 µM): 4.72%
viability, T/C (second compound 0.3 µM, first compound 0.1 µM): 4.35%
viability, T/C (second compound 0.3 µM, first compound 0.316 µM): 3.45%
viability, T/C (second compound 0.3 µM, first compound 1 µM): 3.1%
viability, T/C (second compound 0.3 µM, first compound 3.16 µM): 2.4%
viability, T/C (second compound 0.3 µM, first compound 10 µM): 1.92%

CC(C)n1nc(-c2ccc3oc(N)nc3c2)c2c(N)ncnc21 + C=CC(=O)N1CCN(c2nc(OCC3CCCN3C)nc3c(F)c(-c4nc(N)cc(C)c4C(F)(F)F)c(Cl)cc23)C(C)C1
IC50 (second compound 0.00316 µM): 0.0851 µM
IC50 (second compound 0.01 µM): > 0.1 µM
IC50 (second compound 0.0316 µM): > 0.1 µM
IC50 (second compound 0.1 µM): 0.0976 µM
IC50 (second compound 0.316 µM): 0.0951 µM
IC50 (second compound 1 µM): 0.0803 µM
viability, T/C (second compound 0.00316 µM, first compound 0.000316 µM): 109%
viability, T/C (second compound 0.00316 µM, first compound 0.001 µM): 92.1%
viability, T/C (second compound 0.00316 µM, first compound 0.00316 µM): 91.1%
viability, T/C (second compound 0.00316 µM, first compound 0.01 µM): 80.4%
viability, T/C [1]: 90.1%
viability, T/C [2]: 43.5%
viability, T/C (second compound 0.01 µM, first compound 0.000316 µM): 97.6%
viability, T/C (second compound 0.01 µM, first compound 0.001 µM): 96.7%
viability, T/C (second compound 0.01 µM, first compound 0.00316 µM): 82.5%
viability, T/C (second compound 0.01 µM, first compound 0.01 µM): 106%
viability, T/C [3]: 77.7%
viability, T/C [4]: 51.4%
viability, T/C (second compound 0.0316 µM, first compound 0.000316 µM): 95.1%
viability, T/C (second compound 0.0316 µM, first compound 0.001 µM): 104%
viability, T/C (second compound 0.0316 µM, first compound 0.00316 µM): 80.3%
viability, T/C (second compound 0.0316 µM, first compound 0.01 µM): 123%
viability, T/C [5]: 89.8%
viability, T/C [6]: 56.8%
viability, T/C (second compound 0.1 µM, first compound 0.000316 µM): 94.5%
viability, T/C (second compound 0.1 µM, first compound 0.001 µM): 106%
viability, T/C (second compound 0.1 µM, first compound 0.00316 µM): 108%
viability, T/C (second compound 0.1 µM, first compound 0.01 µM): 91%
viability, T/C [7]: 90.8%
viability, T/C [8]: 48.5%
viability, T/C (second compound 0.316 µM, first compound 0.000316 µM): 92.5%
viability, T/C (second compound 0.316 µM, first compound 0.001 µM): 106%
viability, T/C (second compound 0.316 µM, first compound 0.00316 µM): 94%
viability, T/C (second compound 0.316 µM, first compound 0.01 µM): 93.9%
viability, T/C [9]: 97.4%
viability, T/C [10]: 48%
viability, T/C (second compound 1 µM, first compound 0.000316 µM): 109%
viability, T/C (second compound 1 µM, first compound 0.001 µM): 101%
viability, T/C (second compound 1 µM, first compound 0.00316 µM): 84.6%
viability, T/C (second compound 1 µM, first compound 0.01 µM): 113%
viability, T/C [11]: 82.5%
viability, T/C [12]: 42.5%
